Measured values as given in patent US9358247B2, “Methods and compositions for promoting activity of anti-cancer therapies” (Oncology Research International Limited, priority 2006, dated 2016).

Columns and labels:
Assay in all cases: Cancer cell growth inhibition, SRB dye assay (single agents and 50:50 IC50 mixtures)
Format in all cases: cell-based, human
K562 cell line = settings: Homo sapiens, 144 h, Example 6, value used to make up 50:50 IC50 mixtures, read-out: IC50 values used in assay
Method: Cancer cells were seeded the day before application of drug in triplicate or quadruplicate in 96-well plates, allowed to grow in the presence of drug for 6 days before cell growth relative to untreated control wells was determined with a dye assay.
Cells were seeded in triplicate or quadruplicate at 3-4,000 per microtitre well in 90 μl of RPMI culture medium/10% foetal calf serum/penicillin, streptomycin mix, treated with 10 μl of drug (prepared in a dilution plate at 10× concentration required), and allowed to grow until the controls were nearly confluent (6 days).
SRB: Plates were washed with PBS, fixed with methylated spirits, washed with tap water and stained with 50 μL/well of SRB solution (sulforhodamine, 0.4% in 1% acetic acid), followed by washing with tap water and 1% acetic acid, solubilisation in Tris and absorbance read at 564 nm in an ELISA reader.
Data was collected using ELISA plate reader software—SOFTmax PRO3.1.2, then imported into EXCEL. The mean and SD of replicates were calculated as a % of control, after subtraction of the blank value (wells with no cells). A graph was plotted of % control vs dose of agent and IC50 (half maximal inhibitory concentration) values determined.
Tumour cells were seeded in duplicate in 96-well plates at 2-5,000 per microtitre well containing RPMI culture medium/10% foetal calf serum. The cells were allowed to grow until the controls were nearly confluent after 5-6 days. Plates were then washed with PBS, fixed in ethanol and stained with 50 μL/well of SRB solution (sulforhodamine, 0.4% in 1% acetic acid), followed by washing with 1% acetic acid and solubilisation in Tris. The absorbance was read at 564 nm using an ELISA reader.
The IC50, or concentration required to inhibit cell growth by 50%, was determined from the percentage inhibition versus concentration data using the probit calculation methods of Finney (Finney D J (1971). Probit Analysis. 3rd Edition. Cambridge University Press).
The inhibitory data from each mixture was used to determine an IC50 of IC50 value, where the concentrations used were the Multiplying Factor values. In order to determine the actual IC50 contribution of each component in the two-component mixture, the IC50 of IC50 value was multiplied by the IC50 of the individual component. This can then be used to determine the reduction in IC50 contribution (ie, reduction in dose) of the chemotherapeutic agent due to the presence of the steroid saponin in the mixture. A simpler way of determining the reduction in dose is to use the following simple formula: […]
The cell seeding and ELISA plate methodology of Example 2 were used for determining inhibition of the K562 cell line.

MCF7 cell line = system: MCF7 cell line
Method: (§1) Cancer cells were seeded the day before application of drug in triplicate or quadruplicate in 96-well plates, allowed to grow in the presence of drug for 6 days before cell growth relative to untreated control wells was determined with a dye assay. Cells were seeded in triplicate or quadruplicate at 3-4,000 per microtitre well in 90 μl of RPMI culture medium/10% foetal calf serum/penicillin, streptomycin mix, treated with 10 μl of drug (prepared in a dilution plate at 10× concentration required), and allowed to grow until the controls were nearly confluent (6 days). SRB: Plates were washed with PBS, fixed with methylated spirits, washed with tap water and stained with 50 μL/well of SRB solution (sulforhodamine, 0.4% in 1% acetic acid), followed by washing with tap water and 1% acetic acid, solubilisation in Tris and absorbance read at 564 nm in an ELISA reader. Data was collected using ELISA plate reader software—SOFTmax PRO3.1.2, then imported into EXCEL. The mean and SD of replicates were calculated as a % of control, after subtraction of the blank value (wells with no cells). A graph was plotted of % control vs dose of agent and IC50 (half maximal inhibitory concentration) values determined. […] The cells were allowed to grow until the controls were nearly confluent after 5-6 days. Plates were then washed with PBS, fixed in ethanol and stained with 50 μL/well of SRB solution (sulforhodamine, 0.4% in 1% acetic acid), followed by washing with 1% acetic acid and solubilisation in Tris. The absorbance was read at 564 nm using an ELISA reader. […] Cambridge University Press). […] The inhibitory data from each mixture was used to determine an IC50 of IC50 value, where the concentrations used were the Multiplying Factor values. In order to determine the actual IC50 contribution of each component in the two-component mixture, the IC50 of IC50 value was multiplied by the IC50 of the individual component. This can then be used to determine the reduction in IC50 contribution (ie, reduction in dose) of the chemotherapeutic agent due to the presence of the steroid saponin in the mixture. A simpler way of determining the reduction in dose is to use the following simple formula: […]

LNCap cell line = system: LNCap cell line
Method: as §1

[1] = 50:50 IC50 mixture vs vincristine alone, Example 3
[2] = Homo sapiens, 144 h, Example 3, value used to make up 50:50 IC50 mixtures, read-out: IC50 values used in assay

SMILES: C[C@@H]1CC[C@@]2(OC1)O[C@H]1C[C@H]3[C@@H]4CC=C5C[C@@H](O[C@@H]6O[C@H](CO)[C@@H](O[C@@H]7O[C@H](CO)[C@@H](O)[C@H](O)[C@H]7O)[C@H](O)[C@H]6O[C@@H]6O[C@@H](C)[C@H](O)[C@@H](O)[C@H]6O)CC[C@]5(C)[C@H]4CC[C@]3(C)[C@H]1[C@@H]2C [Deltonin, diosgenin Rha2, [Glc4], Glc]
- IC50 (K562 cell line): 1000 nM
- Vincristine Dose Reduction (MCF7 cell line; [1]): consistent reduction in dosage
- IC50 (MCF7 cell line; [2]): 1000 nM
- Vincristine Dose Reduction (LNCap cell line; [1]): consistent reduction in dosage
- IC50 (LNCap cell line; [2]): 1000 nM
